According to US20200008426A1, “ACTIVE COMPOUND COMBINATIONS” (BAYER AKTIENGESELLSCHAFT, priority 2017, published 2020):

Assay: LogP by HPLC on reversed phase columns (EEC directive 79/831 Annex V.A8)
Details: Table 1, formula (I), LC-UV; for LogP [a]: acidic range, 0.1% formic acid in water and acetonitrile; for LogP [b]: neutral range, 0.001 molar ammonium acetate in water and acetonitrile
Protocol: Measurement of LogP values was performed according to EEC directive 79/831 Annex V.A8 by HPLC (High Performance Liquid Chromatography) on reversed phase columns with the following methods:
Lambda-max-values were determined using UV-spectra from 200 nm to 400 nm and the peak values of the chromatographic signals.

| LogP [b] | Compound | LogP [a] |
| --- | --- | --- |
| – | CC(O)(Cn1cncn1)c1cnc(Oc2ccc(Cl)cc2)cc1Cl (racemic) [I.08] | 2.50^[a] |
| – | CC(O)(Cn1cncn1)c1ccc(Oc2ccc(Cl)cc2)nc1Cl (racemic) [I.09] | 2.66^[a] |
| – | OC(Cn1cncn1)c1cnc(Oc2ccc(S(F)(F)(F)(F)F)cc2)cc1C(F)(F)F (racemic) [I.36] | 3.15^[a] |
| – | OC(Cn1cncn1)c1cnc(Oc2ccc(C(F)(F)F)cc2)cc1C(F)(F)F (racemic) [I.47] | 2.84^[a] |
| – | CC(O)(Cn1cncn1)c1ccc(Oc2ccc(OC(F)(F)F)cc2)nc1C(F)(F)F (racemic) [I.95] | 2.98^[a] |
| – | CC(O)(Cn1cncn1)c1ccc(Oc2ccc(Cl)cc2)nc1C(F)(F)F (racemic) [I.96] | 2.68^[a] |
| – | OC(Cn1cncn1)(c1ccc(Oc2ccc(S(F)(F)(F)(F)F)cc2)nc1C(F)(F)F)C1CC1 (racemic) [I.97] | 3.80^[a] |
| – | CCCCC(O)(Cn1cncn1)c1ccc(Oc2ccc(Cl)cc2)nc1C(F)(F)F (racemic) [I.98] | 3.87^[a] |
| – | CCCC(O)(Cn1cncn1)c1ccc(Oc2ccc(Cl)cc2)nc1C(F)(F)F (racemic) [I.100] | 3.55^[a] |
| – | CCC(O)(Cn1cncn1)c1ccc(Oc2ccc(Cl)cc2)nc1C(F)(F)F (racemic) [I.103] | 3.19^[a] |
| – | CC(O)(Cn1cncn1)c1cnc(Oc2ccc(Cl)cc2)cc1C(F)(F)F (single isomer, unassigned) [I.45] | 2.84^[a] |
| – | CC(O)(Cn1cncn1)c1cnc(Oc2ccc(Cl)cc2)cc1C(F)(F)F (single isomer, unassigned) [I.46] | 2.93^[a] |
| – | CC(O)(Cn1cncn1)c1ccc(Oc2ccc(Cl)cc2)nc1Cl (single isomer, unassigned) [I.51] | 2.62^[a] |
| – | CC(O)(Cn1cncn1)c1ccc(Oc2ccc(Cl)cc2)nc1Cl (single isomer, unassigned) [I.52] | 2.62^[a] |
| – | CC(O)(Cn1cncn1)c1cnc(Oc2ccc(Cl)cc2)cc1Cl (single isomer, unassigned) [I.53] | 2.53^[a] |
| – | CC(O)(Cn1cncn1)c1cnc(Oc2ccc(Cl)cc2)cc1Cl (single isomer, unassigned) [I.54] | 2.53^[a] |
| – | OC(Cn1cncn1)c1cnc(Oc2ccc(C(F)(F)F)cc2)cc1C(F)(F)F (single isomer, unassigned) [I.72] | 2.86^[a] |
| – | OC(Cn1cncn1)c1cnc(Oc2ccc(S(F)(F)(F)(F)F)cc2)cc1C(F)(F)F (single isomer, unassigned) [I.83] | 3.11^[a] |
| – | OC(Cn1cncn1)(c1ccc(Oc2ccc(Br)cc2)nc1C(F)(F)F)C1CC1 (single isomer, unassigned) [I.84] | 3.41 ^[a] |
| – | OC(Cn1cncn1)c1cnc(Oc2ccc(S(F)(F)(F)(F)F)cc2)cc1C(F)(F)F (single isomer, unassigned) [I.86] | 3.11^[a] |
| – | OC(Cn1cncn1)c1cnc(Oc2ccc(C(F)(F)F)cc2)cc1C(F)(F)F (single isomer, unassigned) [I.92] | 2.86^[a] |

| LogP [b] | Compound | LogP [a] |
| --- | --- | --- |
| – | OC(Cn1cncn1)(c1ccc(Oc2ccc(Br)cc2)nc1C(F)(F)F)C1CC1 (single isomer, unassigned) [I.99] | 3.41^[a] |
| – | CC(O)(Cn1cncn1)c1ccc(Oc2ccc(Br)cc2)nc1C(F)(F)F (single isomer, unassigned) [I.101] | 2.94^[a] |
| – | CC(O)(Cn1cncn1)c1ccc(Oc2ccc(Br)cc2)nc1C(F)(F)F (single isomer, unassigned) [I.102] | 2.94^[a] |
| 2.06 | CC(O)(Cn1cncn1)c1cnc(Oc2ccccc2)cc1Cl (centres unmarked) [I.05] | 2.10 |
| 2.43 | CC(O)(Cn1cncn1)c1ncc(Oc2ccccc2)cc1Cl (centres unmarked) [I.06] | 2.47 |
| 2.09 | CC(O)(Cn1cncn1)c1ccc(Oc2ccccc2)nc1Cl (centres unmarked) [I.07] | 2.14 |
| – | OC(Cn1cncn1)c1ccc(Oc2ccc(Cl)c(Cl)c2)nc1Cl (centres unmarked) [I.10] | 2.80^[a] |
| – | OC(Cn1cncn1)c1ccc(Oc2ccc(OC(F)(F)F)c(Cl)c2)nc1Cl (centres unmarked) [I.11] | 3.11^[a] |
| – | OC(Cn1cncn1)c1ccc(Oc2ccc(OC(F)(F)F)cc2)nc1Cl (centres unmarked) [I.12] | 2.73^[a] |
| – | OC(Cn1cncn1)c1ccc(Oc2ccccc2)nc1Cl (centres unmarked) [I.13] | 1.98^[a] |
| – | OC(Cn1cncn1)c1ccc(Oc2ccc(Cl)cc2)nc1Cl (centres unmarked) [I.14] | 2.42^[a] |
| – | Cc1cc(Cl)ccc1Oc1ccc(C(O)Cn2cncn2)c(Cl)n1 (centres unmarked) [I.15] | 2.75^[a] |
| – | Cc1ccc(Oc2ccc(C(O)Cn3cncn3)c(Cl)n2)cc1Cl (centres unmarked) [I.16] | 2.73^[a] |
| – | OC(Cn1cncn1)c1ccc(Oc2ccc(F)cc2)nc1Cl (centres unmarked) [I.17] | 2.08^[a] |
| – | OC(Cn1cncn1)c1ccc(Oc2ccc(F)cc2F)nc1Cl (centres unmarked) [I.18] | 2.18^[a] |
| – | OC(Cn1cncn1)c1ccc(Oc2ccccc2F)nc1Cl (centres unmarked) [I.19] | 2.08^[a] |
| – | OC(Cn1cncn1)c1ccc(Oc2cc(F)c(F)c(F)c2)nc1Cl (centres unmarked) [I.20] | 1.65^[a] |
| – | OC(Cn1cncn1)c1cnc(Oc2ccccc2)cc1Cl (centres unmarked) [I.21] | 1.92^[a] |
| – | OC(Cn1cncn1)c1ncc(Oc2ccccc2)cc1Cl (centres unmarked) [I.22] | 2.01^[a] |
| – | OC(Cn1cncn1)c1ccc(Oc2ccc(Cl)cc2Cl)nc1Cl (centres unmarked) [I.23] | 2.75^[a] |
| – | CC(O)c1ccc(Oc2ccc(C(O)Cn3cncn3)c(Cl)n2)cc1 (centres unmarked) [I.24] | 1.48^[a] |

| LogP [b] | Compound | LogP [a] |
| --- | --- | --- |
| – | OC(Cn1cncn1)c1ccc(Oc2ccc(Cl)cc2)nc1C(F)F (centres unmarked) [I.25] | 2.44^[a] |
| – | OC(Cn1cncn1)c1ccc(Oc2ccc(Cl)cc2)nc1OC(F)(F)F (centres unmarked) [I.26] | 2.92^[a] |
| – | CC(O)(Cn1cncn1)c1ccc(Oc2ccc(F)cc2)nc1Cl (centres unmarked) [I.27] | 2.28^[a] |
| – | Cc1cc(Cl)ccc1Oc1ccc(C(C)(O)Cn2cncn2)c(Cl)n1 (centres unmarked) [I.28] | 2.94^[a] |
| – | Cc1ccc(Oc2ccc(C(C)(O)Cn3cncn3)c(Cl)n2)cc1Cl (centres unmarked) [I.29] | 3.00^[a] |
| – | COc1ccc(Oc2ccc(C(O)Cn3cncn3)c(Cl)n2)c(Cl)c1 (centres unmarked) [I.30] | 2.32^[a] |
| – | COc1ccc(Oc2ccc(C(C)(O)Cn3cncn3)c(Cl)n2)c(Cl)c1 (centres unmarked) [I.31] | 2.56^[a] |
| – | CC(O)(Cn1cncn1)c1ccc(Oc2ccc(Cl)c(Cl)c2)nc1Cl (centres unmarked) [I.32] | 3.09^[a] |
| – | CC(O)(Cn1cncn1)c1ccc(Oc2ccc(Cl)cc2)nc1OC(F)(F)F (centres unmarked) [I.33] | 3.29^[a] |
| – | OC(Cn1cncn1)c1ccc(Oc2ccc(S(F)(F)(F)(F)F)cc2)nc1Cl (centres unmarked) [I.34] | 2.90^[a] |
| – | CC(O)(Cn1cncn1)c1ccc(Oc2ccc(S(F)(F)(F)(F)F)cc2)nc1Cl (centres unmarked) [I.35] | 3.17^[a] |
| – | CC(O)(Cn1cncn1)c1cnc(Oc2ccc(S(F)(F)(F)(F)F)cc2)cc1C(F)(F)F (centres unmarked) [I.37] | 3.33^[a] |
| – | OC(Cn1cncn1)c1ccc(Oc2ccc(C(F)F)cc2)nc1Cl (centres unmarked) [I.38] | 2.17^[a] |
| – | CC(O)(Cn1cncn1)c1ccc(Oc2ccc(C(F)F)cc2)nc1Cl (centres unmarked) [I.39] | 2.41^[a] |
| – | OC(Cn1cncn1)c1ccc(Oc2ccc(Br)cc2)nc1C(F)(F)F (centres unmarked) [I.40] | 2.82^[a] |
| – | OC(Cn1cncn1)c1ccc(Oc2ccc(Cl)cc2)nc1F (centres unmarked) [I.41] | 2.23^[a] |
| – | CC(O)(Cn1cncn1)c1ccc(Oc2ccc(Cl)cc2)nc1F (centres unmarked) [I.42] | 2.46^[a] |
| – | OC(Cn1cncn1)c1cnc(Oc2ccc(OC(F)(F)F)cc2)cc1C(F)(F)F (centres unmarked) [I.43] | 3.00^[a] |
| – | CC(O)(Cn1cncn1)c1cnc(Oc2ccc(OC(F)(F)F)cc2)cc1C(F)(F)F (centres unmarked) [I.44] | 3.23^[a] |
| – | OC(Cn1cncn1)c1cnc(Oc2ccc(Br)cc2)cc1C(F)(F)F (centres unmarked) [I.48] | 2.75^[a] |
| – | CC(O)(Cn1cncn1)c1cnc(Oc2ccc(Br)cc2)cc1C(F)(F)F (centres unmarked) [I.49] | 2.96^[a] |

| LogP [b] | Compound | LogP [a] |
| --- | --- | --- |
| – | CC(O)(Cn1cncn1)c1cnc(Oc2ccc(C(F)(F)F)cc2)cc1C(F)(F)F (centres unmarked) [I.50] | 3.11^[a] |
| – | OC(Cn1cncn1)c1cnc(Oc2ccc(C(F)F)cc2)cc1C(F)(F)F (centres unmarked) [I.55] | 2.55^[a] |
| – | CC(O)(Cn1cncn1)c1cnc(Oc2ccc(C(F)F)cc2)cc1C(F)(F)F (centres unmarked) [I.56] | 2.73^[a] |
| – | OC(Cn1cncn1)c1cnc(Oc2ccc(Cl)cc2F)cc1C(F)(F)F (centres unmarked) [I.57] | 2.86^[a] |
| – | CC(O)(Cn1cncn1)c1cnc(Oc2ccc(Cl)cc2F)cc1C(F)(F)F (centres unmarked) [I.58] | 3.02^[a] |
| – | OC(Cn1cncn1)c1ccc(Oc2ccc(S(F)(F)(F)(F)F)cc2)nc1C(F)(F)F (centres unmarked) [I.60] | 3.08^[a] |
| – | OC(Cn1cncn1)c1ccc(Oc2ccc(C(F)(F)F)cc2)nc1C(F)(F)F (centres unmarked) [I.61] | 2.84^[a] |
| – | CC(O)(Cn1cncn1)c1ccc(Oc2ccc(S(F)(F)(F)(F)F)cc2)nc1C(F)(F)F (centres unmarked) [I.62] | 3.25^[a] |
| – | OC(Cn1cncn1)c1cnc(Oc2ccc(Br)cc2)cc1C(F)F (centres unmarked) [I.63] | 2.59^[a] |
| – | CC(O)(Cn1cncn1)c1cnc(Oc2ccc(Cl)cc2)cc1C(F)F (centres unmarked) [I.64] | 2.68^[a] |
| – | CC(O)(Cn1cncn1)c1ccc(Oc2ccc(C(F)(F)F)cc2)nc1C(F)(F)F (centres unmarked) [I.65] | 3.04^[a] |
| – | CC(O)(Cn1cncn1)c1ccc(Oc2ccc(Cl)cc2F)nc1C(F)(F)F (centres unmarked) [I.66] | 2.80^[a] |
| – | CC(O)(Cn1cncn1)c1ccc(Oc2ccc(Cl)cc2)nc1C(F)(F)F (centres unmarked) [I.67] | 2.68^[a] |
| – | OC(Cn1cncn1)c1cnc(Oc2ccc(Cl)cc2)cc1Cl (centres unmarked) [I.68] | 2.48^[a] |
| – | C=CC(O)(Cn1cncn1)c1cnc(Oc2ccc(C(F)(F)F)cc2)cc1C(F)(F)F (centres unmarked) [I.69] | 3.33^[a] |
| – | OC(Cn1cncn1)c1ccc(Oc2ccc(Cl)cc2F)nc1C(F)(F)F (centres unmarked) [I.70] | 2.78^[a] |
| – | OC(Cn1cncn1)(c1ccc(Oc2ccc(Cl)cc2)nc1C(F)(F)F)C1CC1 (centres unmarked) [I.71] | 3.35^[a] |
| – | OC(Cn1cncn1)c1ccc(Oc2ccc(Br)cc2)nc1C(F)F (centres unmarked) [I.73] | 2.50^[a] |
| – | OC(Cn1cncn1)c1ccc(Oc2ccc(C(F)F)cc2)nc1C(F)(F)F (centres unmarked) [I.74] | 2.49^[a] |
| – | CC(C)c1ccc(Oc2ccc(C(C)(O)Cn3cncn3)c(C(F)(F)F)n2)cc1 (centres unmarked) [I.75] | 3.35^[a] |
